According to US9403813B2, “Azetidine amide derivatives as orexin receptor antagonists” (ACTELION PHARMACEUTICALS LTD, priority 2013, dated 2016):

How the values were obtained:
human orexin-1 receptor = human orexin-1 receptor (Homo sapiens (Human), UniProt O43613); assay: Intracellular calcium measurements (FLIPR), antagonism of orexin-A response; format: cell-based; conditions: CHO cells expressing human orexin-1 receptor, 3 nM orexin-A, geometric mean if determined several times, read-out: IC50 OX1
Description: (§1) Antagonistic activities on both orexin receptors have been measured for each example compound using the following procedure:
(§2) In Vitro Assay: Intracellular Calcium Measurements:
(§3) Chinese hamster ovary (CHO) cells expressing the human orexin-1 receptor and the human orexin-2 receptor, respectively, are grown in culture medium (Ham F-12 with L-Glutamine) containing 300 μg/mL G418, 100 U/mL penicillin, 100 μg/mL streptomycin and 10% heat inactivated fetal calf serum (FCS). The cells are seeded at 20,000 cells/well into 384-well black clear bottom sterile plates (Greiner). The seeded plates are incubated overnight at 37° C. in 5% CO2. Human orexin-A as an agonist is prepared as 1 mM stock solution in MeOH:water (1:1), diluted in HBSS containing 0.1% bovine serum albumin (BSA), NaHCO3: 0.375 g/L and 20 mM HEPES for use in the assay at a final concentration of 3 nM.
(§4) Antagonists are prepared as 10 mM stock solution in DMSO, then diluted in 384-well plates using DMSO followed by a transfer of the dilutions into in HBSS containing 0.1% bovine serum albumin (BSA), NaHCO3: 0.375 g/L and 20 mM HEPES. On the day of the assay, 50 μL of staining buffer (HBSS containing 1% FCS, 20 mM HEPES, NaHCO3: 0.375 g/L, 5 mM probenecid (Sigma) and 3 μM of the fluorescent calcium indicator fluo-4 AM (1 mM stock solution in DMSO, containing 10% pluronic) is added to each well. The 384-well cell-plates are incubated for 50 min at 37° C. in 5% CO2 followed by equilibration at rt for 30 min before measurement.
(§5) Within the Fluorescent Imaging Plate Reader (FLIPR Tetra, Molecular Devices), antagonists are added to the plate in a volume of 10 μL/well, incubated for 120 min and finally 10 μL/well of agonist is added. Fluorescence is measured for each well at 1 second intervals, and the height of each fluorescence peak is compared to the height of the fluorescence peak induced by 3 nM orexin-A with vehicle in place of antagonist. The IC50 value (the concentration of compound needed to inhibit 50% of the agonistic response) is determined and may be normalized using the obtained IC50 value of an on-plate reference compound. Optimized conditions were achieved by adjustment of pipetting speed and cell splitting regime. The calculated IC50 values may fluctuate depending on the daily cellular assay performance. Fluctuations of this kind are known to those skilled in the art. In the case where IC50 values have been determined several times for the same compound, the geometric mean has been given.

human orexin-2 receptor = human orexin-2 receptor (Homo sapiens (Human), UniProt O43614); assay: as above; format: cell-based; conditions: CHO cells expressing human orexin-2 receptor, 3 nM orexin-A, geometric mean if determined several times, read-out: IC50 OX2
Description: as §1, §2, §3, §4, §5

Chain of human orexin-1 receptor (O43613 whole entry): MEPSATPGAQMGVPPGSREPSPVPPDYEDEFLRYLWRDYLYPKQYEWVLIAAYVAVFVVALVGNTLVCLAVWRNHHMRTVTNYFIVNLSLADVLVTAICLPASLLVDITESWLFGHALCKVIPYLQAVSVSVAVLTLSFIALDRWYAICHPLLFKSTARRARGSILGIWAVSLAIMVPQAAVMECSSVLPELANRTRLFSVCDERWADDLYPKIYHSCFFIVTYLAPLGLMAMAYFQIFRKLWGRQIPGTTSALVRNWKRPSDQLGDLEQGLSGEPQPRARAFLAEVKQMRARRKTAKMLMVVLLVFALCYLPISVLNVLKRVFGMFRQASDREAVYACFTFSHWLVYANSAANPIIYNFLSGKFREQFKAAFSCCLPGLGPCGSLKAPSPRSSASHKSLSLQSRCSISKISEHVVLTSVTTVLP
Chain of human orexin-2 receptor (O43614 whole entry): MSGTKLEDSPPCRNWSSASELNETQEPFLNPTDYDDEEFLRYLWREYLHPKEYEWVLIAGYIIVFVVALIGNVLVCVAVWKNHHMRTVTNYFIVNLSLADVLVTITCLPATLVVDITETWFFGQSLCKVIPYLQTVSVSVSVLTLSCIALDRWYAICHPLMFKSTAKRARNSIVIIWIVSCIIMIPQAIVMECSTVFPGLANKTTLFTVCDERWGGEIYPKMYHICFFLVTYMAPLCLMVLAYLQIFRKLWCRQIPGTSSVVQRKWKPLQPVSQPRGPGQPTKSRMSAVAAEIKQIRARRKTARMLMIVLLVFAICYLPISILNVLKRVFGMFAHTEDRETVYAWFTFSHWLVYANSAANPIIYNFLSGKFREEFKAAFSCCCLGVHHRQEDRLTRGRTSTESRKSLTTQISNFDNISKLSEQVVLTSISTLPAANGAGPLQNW

| SMILES | IC50 (human orexin-1 receptor) | IC50 (human orexin-2 receptor) |
| --- | --- | --- |
| Cc1cccc(-c2noc([C@@H]3CCN3C(=O)c3cc(C)ccc3-n3nccn3)n2)c1 [Example 13, (5-Methyl-2-[1,2,3]triazol-2-yl-phenyl)-[(S)-2-(3-m-tolyl-[1,2,4]oxadiazol-5-yl)-azetidin-1-yl]-methanone] | 1160 nM | 40 nM |
| Cc1ccc(-n2nccn2)c(C(=O)N2CC[C@H]2c2nc(-c3ccccc3Cl)no2)c1 [Example 14, {(S)-2-[3-(2-Chloro-phenyl)-[1,2,4]oxadiazol-5-yl]-azetidin-1-yl}-(5-methyl-2-[1,2,3]triazol-2-yl-phenyl)-methanone] | 1040 nM | 40 nM |
| Cc1ccc(-n2nccn2)c(C(=O)N2CC[C@H]2c2nc(-c3ccccc3OC(F)(F)F)no2)c1 [Example 15, (5-Methyl-2-[1,2,3]triazol-2-yl-phenyl)-{(S)-2-[3-(2-trifluoromethoxy-phenyl)-[1,2,4]oxadiazol-5-yl]-azetidin-1-yl}-methanone] | 116 nM | 15 nM |
| COc1c(F)cccc1-c1noc([C@@H]2CCN2C(=O)c2cc(C)ccc2-n2nccn2)n1 [Example 16, {(S)-2-[3-(3-Fluoro-2-methoxy-phenyl)-[1,2,4]oxadiazol-5-yl]-azetidin-1-yl}-(5-methyl-2-[1,2,3]triazol-2-yl-phenyl)-methanone] | 641 nM | 17 nM |
| COc1cc(C(=O)N2CC[C@H]2c2nc(-c3cccc(F)c3OC)no2)c(-n2nccn2)cc1C [Example 17, {(S)-2-[3-(3-Fluoro-2-methoxy-phenyl)-[1,2,4]oxadiazol-5-yl]-azetidin-1-yl}-(5-methoxy-4-methyl-2-[1,2,3]triazol-2-yl-phenyl)-methanone] | 439 nM | 9 nM |
| Cc1cc(C(=O)N2CC[C@H]2c2nc(-c3ccccc3OC(F)(F)F)no2)c(-n2nccn2)cc1C [Example 18, (4,5-Dimethyl-2-[1,2,3]triazol-2-yl-phenyl)-{(S)-2-[3-(2-trifluoromethoxy-phenyl)-[1,2,4]oxadiazol-5-yl]-azetidin-1-yl}-methanone] | 160 nM | 5 nM |
| COc1c(F)cccc1-c1noc([C@@H]2CCN2C(=O)c2ccc(C)cc2-n2nccn2)n1 [Example 19, {(S)-2-[3-(3-Fluoro-2-methoxy-phenyl)-[1,2,4]oxadiazol-5-yl]-azetidin-1-yl}-(4-methyl-2-[1,2,3]triazol-2-yl-phenyl)-methanone] | 44 nM | 9 nM |
| COc1c(F)cccc1-c1noc([C@@H]2CCN2C(=O)c2ccc(C)cc2-n2nccn2)n1 [Example 20, {(S)-2-[3-(3-Fluoro-2-methoxy-phenyl)-[1,2,4]oxadiazol-5-yl]-azetidin-1-yl}-(4-methyl-2-[1,2,3]triazol-2-yl-phenyl)-methanone] | 634 nM | 33 nM |
| Cc1cc(C(=O)N2CC[C@H]2c2nc(-c3cccc(F)c3C)no2)c(-n2nccn2)cc1C [Example 21, (4,5-Dimethyl-2-[1,2,3]triazol-2-yl-phenyl)-{(S)-2-[3-(3-fluoro-2-methyl-phenyl)-[1,2,4]oxadiazol-5-yl]-azetidin-1-yl}-methanone] | 173 nM | 4 nM |
| Cc1ccc(C(=O)N2CC[C@H]2c2nc(-c3cccc(F)c3C)no2)c(-n2nccn2)c1 [Example 22, {(S)-2-[3-(3-Fluoro-2-methyl-phenyl)-[1,2,4]oxadiazol-5-yl]-azetidin-1-yl}-(4-methyl-2-[1,2,3]triazol-2-yl-phenyl)-methanone] | 821 nM | 23 nM |
| COc1cc(C(=O)N2CC[C@H]2c2nc(-c3ccccc3OC(F)(F)F)no2)c(-n2nccn2)cc1F [Example 23, (4-Fluoro-5-methoxy-2-[1,2,3]triazol-2-yl-phenyl)-{(S)-2-[3-(2-trifluoromethoxy-phenyl)-[1,2,4]oxadiazol-5-yl]-azetidin-1-yl}-methanone] | 1420 nM | 39 nM |
| COc1cc(C(=O)N2CC[C@H]2c2nc(-c3cccc(Cl)c3C)no2)c(-n2nccn2)cc1F [Example 24, {(S)-2-[3-(3-Chloro-2-methyl-phenyl)-[1,2,4]oxadiazol-5-yl]-azetidin-1-yl}-(4-fluoro-5-methoxy-2-[1,2,3]triazol-2-yl-phenyl)-methanone] | 963 nM | 25 nM |
| COc1cc(C(=O)N2CC[C@H]2c2nc(-c3cccc(F)c3C)no2)c(-n2nccn2)cc1F [Example 25, (4-Fluoro-5-methoxy-2-[1,2,3]triazol-2-yl-phenyl)-{(S)-2-[3-(3-fluoro-2-methyl-phenyl)-[1,2,4]oxadiazol-5-yl]-azetidin-1-yl}-methanone] | 1750 nM | 27 nM |
| COc1cc(C(=O)N2CC[C@H]2c2nc(-c3cccc(F)c3OC)no2)c(-n2nccn2)cc1F [Example 26, {(S)-2-[3-(3-Fluoro-2-methoxy-phenyl)-[1,2,4]oxadiazol-5-yl]-azetidin-1-yl}-(4-fluoro-5-methoxy-2-[1,2,3]triazol-2-yl-phenyl)-methanone] | 2080 nM | 26 nM |
| COc1cc(C(=O)N2CC[C@H]2c2nc(-c3ccccc3OC(F)(F)F)no2)c(-n2nccn2)cc1C [Example 27, (5-Methoxy-4-methyl-2-[1,2,3]triazol-2-yl-phenyl)-{(S)-2-[3-(2-trifluoromethoxy-phenyl)-[1,2,4]oxadiazol-5-yl]-azetidin-1-yl}-methanone] | 220 nM | 6 nM |
| COc1cc(C(=O)N2CC[C@H]2c2nc(-c3cccc(Cl)c3C)no2)c(-n2nccn2)cc1C [Example 28, {(S)-2-[3-(3-Chloro-2-methyl-phenyl)-[1,2,4]oxadiazol-5-yl]-azetidin-1-yl}-(5-methoxy-4-methyl-2-[1,2,3]triazol-2-yl-phenyl)-methanone] | 397 nM | 2 nM |
| COc1cc(C(=O)N2CC[C@H]2c2nc(-c3cccc(F)c3C)no2)c(-n2nccn2)cc1C [Example 29, {(S)-2-[3-(3-Fluoro-2-methyl-phenyl)-[1,2,4]oxadiazol-5-yl]-azetidin-1-yl}-(5-methoxy-4-methyl-2-[1,2,3]triazol-2-yl-phenyl)-methanone] | 671 nM | 4 nM |
| CCOc1ncccc1-c1noc([C@@H]2CCN2C(=O)c2cc(C)ccc2-n2nccn2)n1 [Example 30, {(S)-2-[3-(2-Ethoxy-pyridin-3-yl)-[1,2,4]oxadiazol-5-yl]-azetidin-1-yl}-(5-methyl-2-[1,2,3]triazol-2-yl-phenyl)-methanone] | 295 nM | 10 nM |
| CCOc1ncccc1-c1noc([C@@H]2CCN2C(=O)c2cc(C)c(C)cc2-n2nccn2)n1 [Example 31, (4,5-Dimethyl-2-[1,2,3]triazol-2-yl-phenyl)-{(S)-2-[3-(2-ethoxy-pyridin-3-yl)-[1,2,4]oxadiazol-5-yl]-azetidin-1-yl}-methanone] | 68 nM | 3 nM |
| CCOc1ncccc1-c1noc([C@@H]2CCN2C(=O)c2ccc(C)cc2-n2nccn2)n1 [Example 32, {(S)-2-[3-(2-Ethoxy-pyridin-3-yl)-[1,2,4]oxadiazol-5-yl]-azetidin-1-yl}-(4-methyl-2-[1,2,3]triazol-2-yl-phenyl)-methanone] | 819 nM | 100 nM |
| CCOc1ncccc1-c1noc([C@@H]2CCN2C(=O)c2cc(OC)c(F)cc2-n2nccn2)n1 [Example 33, {(S)-2-[3-(2-Ethoxy-pyridin-3-yl)-[1,2,4]oxadiazol-5-yl]-azetidin-1-yl}-(4-fluoro-5-methoxy-2-[1,2,3]triazol-2-yl-phenyl)-methanone] | 1500 nM | 27 nM |
| CCOc1ncccc1-c1noc([C@@H]2CCN2C(=O)c2cc(OC)c(C)cc2-n2nccn2)n1 [Example 34, {(S)-2-[3-(2-Ethoxy-pyridin-3-yl)-[1,2,4]oxadiazol-5-yl]-azetidin-1-yl}-(5-methoxy-4-methyl-2-[1,2,3]triazol-2-yl-phenyl)-methanone] | 238 nM | 5 nM |
| Cc1ccc(-n2nccn2)c(C(=O)N2CC[C@H]2c2nc(-c3cccnc3OC3CCC3)no2)c1 [Example 35, {(S)-2-[3-(2-Cyclobutoxy-pyridin-3-yl)-[1,2,4]oxadiazol-5-yl]-azetidin-1-yl}-(5-methyl-2-[1,2,3]triazol-2-yl-phenyl)-methanone] | 292 nM | 71 nM |
